Test results reported in ChEMBL document CHEMBL5154748, “Discovery of novel 3-butyl-6-benzyloxyphthalide Mannich base derivatives as multifunctional agents against Alzheimer's disease” (Bioorg Med Chem, 2022).

Biological target: Acetylcholinesterase (Homo sapiens, UniProt P22303)
Assay: Inhibition of Human AChE by Ellman's method

Sequence of Acetylcholinesterase (Homo sapiens, UniProt P22303) (P22303 whole entry): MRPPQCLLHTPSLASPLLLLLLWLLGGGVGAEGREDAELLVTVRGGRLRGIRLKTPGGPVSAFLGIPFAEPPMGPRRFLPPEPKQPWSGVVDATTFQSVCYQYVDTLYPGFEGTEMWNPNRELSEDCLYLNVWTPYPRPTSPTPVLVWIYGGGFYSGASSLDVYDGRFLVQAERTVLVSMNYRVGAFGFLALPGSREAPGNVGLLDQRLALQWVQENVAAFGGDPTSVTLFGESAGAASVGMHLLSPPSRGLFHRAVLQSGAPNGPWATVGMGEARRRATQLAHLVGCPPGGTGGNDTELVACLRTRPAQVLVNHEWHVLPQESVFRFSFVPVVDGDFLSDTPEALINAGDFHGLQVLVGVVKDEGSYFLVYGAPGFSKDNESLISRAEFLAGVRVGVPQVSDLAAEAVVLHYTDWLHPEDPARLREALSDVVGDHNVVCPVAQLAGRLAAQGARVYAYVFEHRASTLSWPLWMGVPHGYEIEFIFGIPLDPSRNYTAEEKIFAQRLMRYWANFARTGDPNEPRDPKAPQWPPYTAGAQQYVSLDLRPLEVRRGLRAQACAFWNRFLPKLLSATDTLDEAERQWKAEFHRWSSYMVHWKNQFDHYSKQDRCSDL

Which IC50 does the source give for `CCCCC1OC(=O)c2cc(OCc3ccc(CN4CCCC4)c(O)c3)ccc21` (stereo not drawn) here?
Its IC50 is 3.92 µM.

With `CCCCC1OC(=O)c2cc(OCc3ccc(CN4CCOCC4)c(O)c3)ccc21` (stereo not drawn) as the compound, how does the IC50 read?
The IC50 was 3.32 µM.

Which IC50 does the source give for `CCCCC1OC(=O)c2cc(OCc3ccc(CN(C)C)c(O)c3)ccc21` (stereo not drawn) here?
The IC50 was 8.78 µM.

Tested on: not listed separately
Assay: Antioxidant activity assessed as trolox equivalent of ORAC radical scavenging activity by ORAC-FL assay
Format: functional

For `CCCCC1OC(=O)c2cc(OCc3cccc(CN4CCN(CC)CC4)c3O)ccc21` (stereo not drawn), which Activity is on record?
Its Activity is 1.67.

Which Activity does the source give for `CCCCC1OC(=O)c2cc(OCc3ccc(CN4CCN(CC)CC4)c(O)c3)ccc21` (stereo not drawn) here?
The Activity was 0.77.

For `CCCCC1OC(=O)c2cc(OCc3ccc(CN4CCCC4)c(O)c3)ccc21` (stereo not drawn), which Activity is on record?
Its Activity is 1.73.

For `CCCCC1OC(=O)c2cc(OCc3ccc(CN4CCOCC4)c(O)c3)ccc21` (stereo not drawn), which Activity is on record?
The Activity was 1.12.

For `CCCCC1OC(=O)c2cc(OCc3ccc(CN(C)C)c(O)c3)ccc21` (stereo not drawn), which Activity is on record?
Its Activity is 1.62.

Biological target: T1, Amine oxidase [flavin-containing] A (Homo sapiens, UniProt P21397)
T1 sequence (P21397 whole entry): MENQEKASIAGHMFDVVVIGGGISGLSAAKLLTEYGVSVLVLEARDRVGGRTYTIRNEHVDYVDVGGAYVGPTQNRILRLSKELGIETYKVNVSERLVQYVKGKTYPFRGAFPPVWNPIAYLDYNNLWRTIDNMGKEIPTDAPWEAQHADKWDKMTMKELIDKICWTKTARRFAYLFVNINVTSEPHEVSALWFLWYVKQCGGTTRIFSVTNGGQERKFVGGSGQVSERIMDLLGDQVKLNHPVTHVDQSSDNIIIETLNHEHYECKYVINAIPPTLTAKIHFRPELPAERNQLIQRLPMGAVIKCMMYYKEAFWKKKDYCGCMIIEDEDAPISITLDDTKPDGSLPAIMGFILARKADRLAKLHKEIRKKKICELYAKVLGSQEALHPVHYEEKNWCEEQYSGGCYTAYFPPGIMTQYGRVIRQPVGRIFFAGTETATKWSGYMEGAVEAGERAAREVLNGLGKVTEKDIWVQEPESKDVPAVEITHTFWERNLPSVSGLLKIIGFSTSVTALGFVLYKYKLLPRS
Assay: Inhibition of human MAO-A at 10 uM by fluorescence assay

With `CCCCC1OC(=O)c2cc(OCc3cccc(CN4CCN(CC)CC4)c3O)ccc21` (stereo not drawn) as the compound, how does the inhibition at 10 µM read?
Its inhibition at 10 µM is 12.8%.

For `CCCCC1OC(=O)c2cc(OCc3ccc(CN4CCN(CC)CC4)c(O)c3)ccc21` (stereo not drawn), which inhibition at 10 µM is on record?
Its inhibition at 10 µM is 17.5%.

For `CCCCC1OC(=O)c2cc(OCc3ccc(CN4CCCC4)c(O)c3)ccc21` (stereo not drawn), which inhibition at 10 µM is on record?
The inhibition at 10 µM was 23.7%.

With `CCCCC1OC(=O)c2cc(OCc3ccc(CN4CCOCC4)c(O)c3)ccc21` (stereo not drawn) as the compound, how does the inhibition at 10 µM read?
The inhibition at 10 µM was 27.9%.

With `CCCCC1OC(=O)c2cc(OCc3ccc(CN(C)C)c(O)c3)ccc21` (stereo not drawn) as the compound, how does the inhibition at 10 µM read?
Its inhibition at 10 µM is 29%.

Biological target: Acetylcholinesterase (Electrophorus electricus) (UniProt O42275)
Sequence (O42275 24-633 limits assumed): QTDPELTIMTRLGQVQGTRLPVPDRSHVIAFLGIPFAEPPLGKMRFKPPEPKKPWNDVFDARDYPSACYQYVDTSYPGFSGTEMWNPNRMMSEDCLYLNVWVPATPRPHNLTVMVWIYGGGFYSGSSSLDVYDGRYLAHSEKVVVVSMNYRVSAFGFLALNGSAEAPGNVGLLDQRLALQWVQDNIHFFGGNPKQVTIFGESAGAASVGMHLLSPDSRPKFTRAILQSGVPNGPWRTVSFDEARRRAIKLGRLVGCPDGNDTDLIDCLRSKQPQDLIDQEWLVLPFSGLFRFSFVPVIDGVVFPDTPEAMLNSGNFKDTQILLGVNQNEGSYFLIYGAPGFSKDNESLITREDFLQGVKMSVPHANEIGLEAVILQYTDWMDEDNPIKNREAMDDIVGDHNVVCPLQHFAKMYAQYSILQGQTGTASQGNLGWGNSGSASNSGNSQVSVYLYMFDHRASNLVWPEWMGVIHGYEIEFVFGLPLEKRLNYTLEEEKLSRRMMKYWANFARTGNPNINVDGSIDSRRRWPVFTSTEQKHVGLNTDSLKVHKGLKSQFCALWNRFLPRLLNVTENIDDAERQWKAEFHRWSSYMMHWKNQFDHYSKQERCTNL
Assay: Inhibition of Electric eel AChE at 10 uM by Ellman's method

Which inhibition does the source give for `CCCCC1OC(=O)c2cc(OCc3cccc(CN4CCN(CC)CC4)c3O)ccc21` (stereo not drawn) here?
The inhibition was 20.7%.

Biological target: Butyrylcholinesterase (Rattus norvegicus) (UniProt Q9JKC1)
Sequence (Q9JKC1 as listed by the source): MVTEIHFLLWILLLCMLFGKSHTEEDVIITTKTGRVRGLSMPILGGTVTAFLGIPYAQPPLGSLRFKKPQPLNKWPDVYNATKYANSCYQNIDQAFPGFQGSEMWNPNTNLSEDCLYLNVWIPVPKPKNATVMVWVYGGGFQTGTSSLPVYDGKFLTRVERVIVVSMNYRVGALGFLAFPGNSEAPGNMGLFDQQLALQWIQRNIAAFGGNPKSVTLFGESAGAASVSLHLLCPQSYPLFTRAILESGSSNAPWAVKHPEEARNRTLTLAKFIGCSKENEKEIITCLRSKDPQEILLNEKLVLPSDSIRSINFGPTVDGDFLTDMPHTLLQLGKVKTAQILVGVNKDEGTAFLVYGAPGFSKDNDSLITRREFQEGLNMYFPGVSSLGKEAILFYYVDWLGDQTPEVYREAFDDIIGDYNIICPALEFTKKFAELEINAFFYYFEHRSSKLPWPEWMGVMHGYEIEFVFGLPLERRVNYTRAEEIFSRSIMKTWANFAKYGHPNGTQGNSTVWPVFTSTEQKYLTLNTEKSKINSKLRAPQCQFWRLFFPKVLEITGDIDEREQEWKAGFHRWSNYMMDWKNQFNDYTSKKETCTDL
Assay: Inhibition of Rat BuChE at 10 uM by Ellman's method

With `CCCCC1OC(=O)c2cc(OCc3cccc(CN4CCN(CC)CC4)c3O)ccc21` (stereo not drawn) as the compound, how does the inhibition read?
The inhibition was < 5%.

For `CCCCC1OC(=O)c2cc(OCc3ccc(CN4CCN(CC)CC4)c(O)c3)ccc21` (stereo not drawn), which inhibition is on record?
Its inhibition is 6.5%.

For `CCCCC1OC(=O)c2cc(OCc3ccc(CN4CCCC4)c(O)c3)ccc21` (stereo not drawn), which inhibition is on record?
Its inhibition is 10%.

With `CCCCC1OC(=O)c2cc(OCc3ccc(CN4CCOCC4)c(O)c3)ccc21` (stereo not drawn) as the compound, how does the inhibition read?
Its inhibition is < 5%.

With `CCCCC1OC(=O)c2cc(OCc3ccc(CN(C)C)c(O)c3)ccc21` (stereo not drawn) as the compound, how does the inhibition read?
The inhibition was 11.8%.

Biological target: T2, Amine oxidase [flavin-containing] B (Homo sapiens, UniProt P27338)
T2 sequence (P27338 whole entry): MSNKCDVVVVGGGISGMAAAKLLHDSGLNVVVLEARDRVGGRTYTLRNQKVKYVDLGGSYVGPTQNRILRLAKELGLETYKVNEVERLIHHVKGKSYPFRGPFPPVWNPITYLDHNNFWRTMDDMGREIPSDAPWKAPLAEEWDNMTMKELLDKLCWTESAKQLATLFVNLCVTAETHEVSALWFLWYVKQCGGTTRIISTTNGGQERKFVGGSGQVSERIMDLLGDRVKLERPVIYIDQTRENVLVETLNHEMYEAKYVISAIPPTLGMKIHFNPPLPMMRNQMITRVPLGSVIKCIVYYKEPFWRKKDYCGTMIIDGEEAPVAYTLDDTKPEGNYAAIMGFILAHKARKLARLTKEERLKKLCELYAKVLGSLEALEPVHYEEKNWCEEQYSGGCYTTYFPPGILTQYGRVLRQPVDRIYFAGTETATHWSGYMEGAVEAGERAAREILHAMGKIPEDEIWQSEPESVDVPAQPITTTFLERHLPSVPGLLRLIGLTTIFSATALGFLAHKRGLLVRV
Assay: Inhibition of human MAO-B by fluorescence assay

With `CCCCC1OC(=O)c2cc(OCc3ccc(CN4CCN(CC)CC4)c(O)c3)ccc21` (stereo not drawn) as the compound, how does the IC50 read?
Its IC50 is 2.53 µM.

With `CCCCC1OC(=O)c2cc(OCc3ccc(CN4CCCC4)c(O)c3)ccc21` (stereo not drawn) as the compound, how does the IC50 read?
The IC50 was 0.94 µM.

For `CCCCC1OC(=O)c2cc(OCc3ccc(CN4CCOCC4)c(O)c3)ccc21` (stereo not drawn), which IC50 is on record?
The IC50 was 1.42 µM.

For `CCCCC1OC(=O)c2cc(OCc3ccc(CN(C)C)c(O)c3)ccc21` (stereo not drawn), which IC50 is on record?
Its IC50 is 6.9 µM.

Biological target: T2, Amine oxidase [flavin-containing] B
Assay: Inhibition of human MAO-B at 10 uM by fluorescence assay

Which inhibition at 10 µM does the source give for `CCCCC1OC(=O)c2cc(OCc3cccc(CN4CCN(CC)CC4)c3O)ccc21` (stereo not drawn) here?
Its inhibition at 10 µM is 28.8%.

Biological target: Acetylcholinesterase (Electrophorus electricus, UniProt O42275)
Sequence (O42275 whole entry): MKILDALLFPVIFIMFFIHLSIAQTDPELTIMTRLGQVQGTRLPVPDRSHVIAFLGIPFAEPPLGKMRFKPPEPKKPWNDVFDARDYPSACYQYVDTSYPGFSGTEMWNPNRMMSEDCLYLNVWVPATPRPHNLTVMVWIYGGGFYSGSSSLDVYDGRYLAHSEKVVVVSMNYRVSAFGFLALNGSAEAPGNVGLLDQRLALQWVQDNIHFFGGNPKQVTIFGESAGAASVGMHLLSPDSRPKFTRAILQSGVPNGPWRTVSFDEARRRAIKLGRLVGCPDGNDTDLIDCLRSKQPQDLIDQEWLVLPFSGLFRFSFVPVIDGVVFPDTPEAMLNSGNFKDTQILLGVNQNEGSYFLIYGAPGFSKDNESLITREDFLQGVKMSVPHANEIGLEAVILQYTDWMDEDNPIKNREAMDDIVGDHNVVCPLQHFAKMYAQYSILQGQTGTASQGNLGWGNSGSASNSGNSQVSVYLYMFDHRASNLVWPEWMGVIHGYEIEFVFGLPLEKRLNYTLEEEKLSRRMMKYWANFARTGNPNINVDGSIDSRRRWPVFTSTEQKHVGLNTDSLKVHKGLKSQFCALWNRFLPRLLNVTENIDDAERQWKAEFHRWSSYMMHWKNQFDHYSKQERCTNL
Assay: Inhibition of Electric eel AChE by Ellman's method

With `CCCCC1OC(=O)c2cc(OCc3ccc(CN4CCN(CC)CC4)c(O)c3)ccc21` (stereo not drawn) as the compound, how does the IC50 read?
Its IC50 is 14.8 µM.

With `CCCCC1OC(=O)c2cc(OCc3ccc(CN4CCCC4)c(O)c3)ccc21` (stereo not drawn) as the compound, how does the IC50 read?
Its IC50 is 0.89 µM.

Which IC50 does the source give for `CCCCC1OC(=O)c2cc(OCc3ccc(CN4CCOCC4)c(O)c3)ccc21` (stereo not drawn) here?
Its IC50 is 8.37 µM.

For `CCCCC1OC(=O)c2cc(OCc3ccc(CN(C)C)c(O)c3)ccc21` (stereo not drawn), which IC50 is on record?
Its IC50 is 5.39 µM.
